Assay results reported in PubChem BioAssay (NCI).
Several values for one entry are separate records, joined by “and”; a condition that tells them apart may be missing. Equal values may be shown once.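 Assay format: 96-well plates, 48-hour exposure. GI50: concentration for 50% inhibition of growth. Definition used: TGI = concentration required for complete inhibition of growth.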

Key:
Experiment in all cases: NCI anticancer screen, dose series, 48 h
[1] = test system: HCC-2998 colon
[2] = test system: SF-295 CNS
[3] = test system: TK-10 renal
[4] = test system: OVCAR-5 ovarian
[5] = test system: HOP-92 NSCLC
[6] = test system: LOX IMVI melanoma
[7] = test system: SF-268 CNS
[8] = test system: HCT-15 colon
[9] = test system: SNB-75 CNS
[10] = test system: BT-549 breast

| SMILES | GI50 [1] [µM] | TGI [1] | GI50 [2] [µM] | TGI [2] [µM] | GI50 [3] [µM] | TGI [3] | GI50 [4] [µM] | TGI [4] [µM] | GI50 [5] [µM] | TGI [5] | GI50 [6] [µM] | TGI [6] [µM] | GI50 [7] [µM] | TGI [7] [µM] | GI50 [8] [µM] | TGI [8] | GI50 [9] [µM] | TGI [9] [µM] | GI50 [10] [µM] | TGI [10] [µM] |
| --- | --- | --- | --- | --- | --- | --- | --- | --- | --- | --- | --- | --- | --- | --- | --- | --- | --- | --- | --- | --- |
| COc1ccc(C2C(c3ccccc3)C(=O)N2c2cc(OC)c(OC)c(OC)c2)cc1I (configuration not stated) | 0.567 | > 100 µM | 0.337 | > 100 | > 100 | > 100 µM | 0.526 | > 100 | 0.961 | > 100 µM | 0.457 | > 100 | 0.712 | > 100 | 0.339 | > 100 µM | 6.01 | > 100 | 0.419 | 5.36 |
| O=C(O)C(Br)C(Br)c1ccccc1[N+](=O)[O-] (configuration not stated) |  | > 100 µM |  | > 100 |  | > 100 µM |  | > 100 |  | > 100 µM |  | > 100 |  | > 100 |  | > 100 µM |  | > 100 |  | > 100 |
| O=C(O)c1ccc(S(=O)(=O)N=Nc2c(O)[nH]c3ccccc23)cc1 |  | > 100 µM |  | > 100 |  | > 100 µM |  | > 100 |  | > 100 µM |  | > 100 |  | > 100 |  | > 100 µM |  | > 100 |  | > 100 |
| Cc1ccc2[nH]c(C(=O)NN3C(=O)CSC34CCCC(C)C4)c(-c3ccccc3)c2c1 (configuration not stated) | 14.5 | 28.8 µM | 17.2 | 33.5 | 17.2 | 34.7 µM | 18.3 | 34.8 | 13.1 | 28.3 µM | 19.8 | 37.1 | 15.6 | 32.5 | 18.3 | 37.2 µM | 17.1 | 34.6 | 19.5 | 36.5 |
| O=C(NCCN1CCOCC1)Nc1ccc(-c2cc3c(Nc4ccc(Oc5cccc(C(F)(F)F)c5)c(Cl)c4)ncnc3s2)cc1 | 1.19 | 3.77 µM | 0.936 | 2 | 2.78 | 9.08 µM | 1.66 | 6.32 | 1.66 | 7.43 µM | 0.841 | 1.58 | 1.76 | 7.51 | 0.95 | 1.92 µM | 0.642 | 1.9 | 2.32 | 11.1 |
| Cc1ccccc1-n1c(/C=C\c2ccccn2)nc2ccccc2c1=O | 15.9 | 29.9 µM | 6.76 | 47.3 | 32.6 | > 100 µM | 19.5 | > 100 | 3.32 | 67.1 µM | 15 | 37 | 15.2 | > 100 | 7.39 | 37.2 µM | 16.9 | > 100 | 7.44 | 22.3 |
| COc1cccc2c1cc([N+](=O)[O-])c1c(C(=O)O)cc3c(c12)OCO3 | 3.91 | 18.9 µM and 9.62 µM | 17.4 | > 100 | 8.86 | 48.1 µM and > 100 µM | 22.3 | > 87.6 | 23.3 | 88.3 µM and > 100 µM | 26.2 | > 100 | 29 | > 95.2 | 29.1 | > 100 µM and 38.6 µM | 36 | > 100 |  | > 100 |
| COC(=O)c1c2c(c(C)[n+]([O-])c1C)C(=O)C(NCc1cccc(OC)c1)=CC2=O | 3.12 | 9.64 µM | 2.05 | 6.13 | 4.55 | 22.7 µM | 2.05 | 4.76 | 2.75 | 6.57 µM | 2.36 | 6.86 | 2.86 | 11.7 | 1.89 | 4.73 µM | 3.03 | 12.9 | 3.49 | 13.4 |
| COc1ccccc1CNC(=O)C1c2ccccc2C(=O)N(CC(C)C)C1c1cccs1 (configuration not stated) | 47.8 | > 100 µM | 15.6 | 67.8 | 26.3 | 66.9 µM | 34.6 | > 100 | 8.15 | 44 µM | 27.8 | 89.1 | 30.6 | > 100 | 20.8 | > 100 µM | 18.1 | > 100 | 23 | 64.4 |
| CCCCCCNC(=O)Oc1ccc(/C(=C(\C)c2ccccc2)c2ccc(OCCN3CCCCC3)cc2)cc1 | 2.96 | 8.92 µM | 1.74 | 3.5 | 7.85 | 21.4 µM | 9.75 | 24.1 | 1.51 | 5.04 µM | 1.71 | 3.09 | 4.26 | 20.2 | 1.53 | 3.52 µM | 2.01 | 10.1 | 2.38 | 7.1 |
| COc1ccc(NC(=O)c2sc3nc(C)c(C(O)c4ccc(OC)cc4)cc3c2N)cc1 (configuration not stated) | 0.804 | 2.89 µM | 0.299 | 9.79 | 17.1 | > 50 µM | 1.87 | > 50 | 5.62 | > 50 µM | 1.4 | > 50 | 2.28 | > 50 | 0.414 | > 50 µM | 0.815 | 17.3 | 1.81 | > 50 |
| COc1ccc(/C(Cl)=C(\C=O)c2ccc(OC)c(OC)c2)cc1OC |  | > 100 µM |  | 48.2 |  | > 100 µM |  | > 48.7 |  | > 100 µM |  | > 100 |  | > 39.8 |  | > 100 µM |  | 41 |  | > 100 |
| C[C@@]1(c2ncncc2F)NC(=O)c2cc(-c3cn[nH]c3)ccc21 | 22.9 | > 100 µM | 29.4 | > 100 | 10.9 | 58.3 µM | 22.4 | 99 | 22.6 | 88.5 µM | 8.23 | > 100 | 28.4 | > 100 | 20.8 | > 100 µM | 4.45 | 40.3 | 11.8 | 49.3 |
| COc1cc(-c2nn(C(=O)NS(=O)(=O)c3ccc(C)cc3)cc2-c2ccncc2)ccc1Cl | 11.4 | 35.8 µM |  |  | 4.9 | 19.8 µM | 5.53 | 39.4 | 10.3 | 77.8 µM | 3.54 | 18.1 | 4.32 | > 100 | 10.2 | 44.7 µM | 1.69 | 7.52 | 2.66 | 10.6 |
| CN(C)CCOc1nc2c3cccnc3cc(-c3cccc(Cl)c3)c2c2ncccc12 | 1.43 | 2.93 µM | 1.13 | 2.5 | 1.52 | 4.04 µM | 1.5 | 4.02 | 2.04 | 8.42 µM | 0.968 | 4.5 | 1.17 | 4.37 | 1.05 | 2.7 µM | 1.23 | 7.78 | 6.11 | 19.9 |
| CS(=O)(=O)OCCN(CCOS(C)(=O)=O)c1ccc(C=Nc2ccc3oc(=O)ccc3c2)cc1 |  | 7.77 µM |  | 42.2 |  | 9.22 µM |  | 28.9 |  | 47.1 µM |  | 29.9 |  | 74.3 |  | 37.9 µM |  | 26.1 |  | 45.7 |
| CC(F)(F)c1cc(F)ccc1-c1sc2cc(O)ccc2c1Oc1ccc(/C=C/C(=O)O)cc1 | 12.7 | 30.6 µM | 5.23 | 20.5 | 22 | > 100 µM | 17.4 | 37.7 | 11.1 | 27.3 µM | 6.96 | 21.9 | 7.31 | 24.1 | 4.13 | 18.2 µM | 3.52 | 19.8 | 6.46 | 27 |
| Cc1[nH]nc2c1N=C(c1ccccc1F)c1cc(C#N)ccc1N2 | 3.58 | 15.9 µM | 0.207 | 15.9 | 1.91 | 8.73 µM | 7.12 | 18.8 | 0.672 | 8.87 µM | 0.285 | 16.3 | 0.316 | 5.8 |  |  | 0.036 | 0.717 | 2.65 | 12.1 |
| Oc1ccc(Br)cc1/C=N/NC(=S)NC12CC3CC(CC(C3)C1)C2 | 1.95 | 4.6 µM | 2.6 | 7.89 |  |  | 1.89 | 4.78 | 2.35 | 6.58 µM | 1.22 | 2.88 | 1.44 | 4.14 | 0.734 | 3.49 µM | 2.03 | 7.15 | 4.36 | 15.7 |
| O=C(N=Nc1c(O)[nH]c2c(Cl)cc(Cl)cc12)c1ccncc1 |  | > 100 µM |  | > 100 |  | > 100 µM |  | > 100 |  | > 100 µM |  | 42.3 |  |  |  | > 100 µM |  | 95.2 |  | > 100 |
